Source: patent US4239780A, “Phospholipase A2 inhibition” (The Upjohn Company, priority 1979, dated 1980)
Where a name gives a salt, the structure may show the parent alone.

Experiments:
[1] = target: T1, HOG PANCREAS PHOSPHOLIPASE A2 (Sus scrofa, UniProt P00592); assay: coupled phospholipase A2 / soybean lipoxygenase oxygen consumption assay, hog pancreas enzyme; type: biochemical; conditions: estimated I50 calculated from a partial inhibition value, pH 8.5, 37° C.
T1 construct: from tissue; host or cells: hog pancreas
T1 sequence (P00592 23-146): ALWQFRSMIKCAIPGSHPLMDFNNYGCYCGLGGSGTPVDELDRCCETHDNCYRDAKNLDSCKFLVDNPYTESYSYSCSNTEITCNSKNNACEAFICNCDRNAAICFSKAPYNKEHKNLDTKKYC

[2] = target: T2, HUMAN PLATELET PHOSPHOLIPASE A2 (Homo sapiens, UniProt P47712); assay: inhibition of collagen-induced aggregation of human platelets; type: cell-based; conditions: human platelet rich plasma, read-out: I50 collagen (converted)
T2 construct: Human blood was drawn from an antecubital vein into 3.8% sodium citrate; endogenous in cells; host or cells: human platelets in citrated plasma (PRP)
T2 sequence (P47712 1-749): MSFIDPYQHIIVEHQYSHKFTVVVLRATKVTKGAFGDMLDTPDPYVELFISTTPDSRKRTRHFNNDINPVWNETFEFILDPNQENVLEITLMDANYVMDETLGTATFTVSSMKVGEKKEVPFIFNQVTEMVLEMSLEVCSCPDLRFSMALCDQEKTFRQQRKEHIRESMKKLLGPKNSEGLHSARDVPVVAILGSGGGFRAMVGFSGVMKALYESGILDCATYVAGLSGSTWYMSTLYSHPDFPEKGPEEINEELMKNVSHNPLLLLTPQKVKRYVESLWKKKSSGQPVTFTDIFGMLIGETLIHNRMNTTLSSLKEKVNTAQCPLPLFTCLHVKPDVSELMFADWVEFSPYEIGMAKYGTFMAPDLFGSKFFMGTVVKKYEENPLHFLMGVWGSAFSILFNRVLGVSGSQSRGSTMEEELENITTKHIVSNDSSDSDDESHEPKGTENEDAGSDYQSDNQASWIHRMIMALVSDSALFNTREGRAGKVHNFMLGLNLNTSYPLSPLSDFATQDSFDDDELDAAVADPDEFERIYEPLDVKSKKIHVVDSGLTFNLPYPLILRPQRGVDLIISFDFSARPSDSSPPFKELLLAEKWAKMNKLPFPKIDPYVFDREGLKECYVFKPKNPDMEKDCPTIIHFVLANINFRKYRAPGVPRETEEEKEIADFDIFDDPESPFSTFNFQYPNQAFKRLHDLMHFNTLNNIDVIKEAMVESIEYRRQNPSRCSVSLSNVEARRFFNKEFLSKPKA
Procedure: The compounds of the present invention were tested for their ability to inhibit collagen-induced aggregation of platelets at 100 μg. per ml. or less. The compounds that were active against collagen-induced aggregation were tested at the I50 dose against arachidonic acid-induced aggregation. Compounds that inhibited collagen-induced aggregation, but not arachidonic acid-induced aggregation, were reported as active phospholipase A2 inhibitors.
The test was run as follows. Human blood was drawn from an antecubital vein into 3.8% sodium citrate with the final citrate concentration being 0.38%. The blood was transferred to plastic centrifuge tubes and centrifuged at 200×g for 10 min. This yielded […] (PRP). This PRP was allowed to stand for 30 min. for testing at which point it was tested against 400 μg. per ml. of arachidonic acid. […] If the platelets aggregated to arachidonic acid, a dose of collagen that gave a substantial irreversible aggregation (approximately 60-80% transmission) was established. It was then attempted to block the response of collagen with 10 μg. per ml. of indomethacin. […] The ID50 for all unknown compounds was then established. Most of the compounds were tested at rather high concentrations and it was often necessary to place the compound in ethanol into the aggregation cuvet and evaporate the ethanol before testing.
Those that were reported as active were tested at the ID50 dose against 400 μg per ml. of arachidonic acid. […] The compounds are shown to inhibit phospholipase A2 from humans at low dosages.

[3] = test system: UV induced erythema; assay: UV induced erythema on the skin of guinea pigs; type: in vivo, guinea pig; conditions: for erythema score, 1 hour / erythema score, 2 hours / erythema score, 3 hours / erythema score, 4 hours / erythema score, 24 hours: aggregate score for 3 animals; for erythema score, (After 4 hours) Total Points / erythema score, (After 24 hours) Total Points: aggregate for 3 animals
Procedure: Some of the compounds of this invention were tested in vivo for their ability to inhibit the effects of UV induced erythema on the skin of guinea pigs. This is an example of an inflammatory process fulfilling the four pathological requirements of "rubor, calor, dolor, and tumor" i.e., reddening, heat, pain, and edematious swelling in the skin. Administration of the compounds of this invention to guinea pigs whose skin was subsequently exposed to ultraviolet light markedly retarded and in some cases eliminated altogether this inflammatory process. Administration of the compounds of this invention was performed both interparenterally and subcutaneously with equivalent results, thereby eliminating any possiblity of reduction in erthyma due to the so called "counter irritant" effect on the serosal soft surface of the gut.
The test was carried out as follows: Guinea pigs of the Hartley strain ranging in weight from 250 to 750 gm. were clipped with coarse and fine clippers to remove as much hair as possible from the back or abdomen. They were then treated with a commercial depilatory for six to seven min. after which they were washed with warm water. The animals were then injected I.P. or subcutaneously with solutions or suspensions of the test compounds made up at 0.02 molar concentrations. The dose was 0.3 ml. per 100 gm. of body weight. A control (untreated) group was also maintained. The animals were then held for 30 min. before being exposed as rapidly as possible to ultra-violet light using a Kromayer lamp for 30 sec. A scoring system was developed to quantitate the erythema. The scoring was from 0 to 5 and is described as follows:
0=no apparent reddening of the skin
0.5=some slight reddening, without a definite border
1.0=a discrete pink circle with a definite border
2.0=a discrete circle of redness with a definite border more intense than 1.0
3.0=same circle with still greater intensity
4.0=same circle with a near maximal response but without any raising of the erythematous spot above the level of the surrounding skin
5.0=a raised edematous circle with the redness at maximal intensity
The animals were scored at hourly intervals for the first four hours. The erythema reached a maximum at this time in the control animals. The major difference between results at 4 hr. and those at 24 is the developement of edema and this occurred in some of the animals treated with phospholipase inhibitors without erythema being present. The results of this test are shown in tabular form in Tables VI and VII. The aggregate scores of the animals treated with the designated compounds are recorded at hourly intervals and compared with the control (untreated) scores. As shown by the tables, the method of this invention markedly retarded UV-induced erythema.

[4] = target: SNAKE VENOM PHOSPHOLIPASE A2; assay: coupled phospholipase A2 / soybean lipoxygenase oxygen consumption assay, snake venom enzyme; type: biochemical; conditions: estimated I50 calculated from a partial inhibition value, pH 8.5, 37° C.
[5] = intraperitoneal, 23-25.2 mg/kg given 30 min. before UV, control 12
[6] = intraperitoneal, 23-25.2 mg/kg given 30 min. before UV, control 18
[7] = intraperitoneal, 23-25.2 mg/kg given 30 min. before UV, control 24
[8] = intraperitoneal, 23-25.2 mg/kg given 30 min. before UV, control 30
[9] = intraperitoneal, 23-25.2 mg/kg given 30 min. before UV, control 50
[10] = intraperitoneal, 23-25.2 mg/kg, control 78
[11] = intraperitoneal, 23-25.2 mg/kg, control 128
[12] = subcutaneous, 60.9-66.1 mg/kg given 30 min. before UV, control 17
[13] = subcutaneous, 60.9-66.1 mg/kg given 30 min. before UV, control 23
[14] = subcutaneous, 60.9-66.1 mg/kg given 30 min. before UV, control 29
[15] = subcutaneous, 60.9-66.1 mg/kg given 30 min. before UV, control 34
[16] = subcutaneous, 60.9-66.1 mg/kg given 30 min. before UV, control 56
[17] = subcutaneous, 60.9-66.1 mg/kg, control 103
[18] = subcutaneous, 60.9-66.1 mg/kg, control 158

Row | Compound | IC50 [1] | IC50 [2] | erythema score, 1 hour [3, 5] | erythema score, 2 hours [3, 6] | erythema score, 3 hours [3, 7] | erythema score, 4 hours [3, 8] | erythema score, 24 hours [3, 9] | erythema score, (After 4 hours) Total Points [3, 10] | erythema score, (After 24 hours) Total Points [3, 11] | erythema score, 1 hour [3, 12] | erythema score, 2 hours [3, 13] | erythema score, 3 hours [3, 14] | erythema score, 4 hours [3, 15] | erythema score, 24 hours [3, 16] | erythema score, (After 4 hours) Total Points [3, 17] | erythema score, (After 24 hours) Total Points [3, 18] | IC50 [4]
1 | O=C(CCCN[C@H]1CC[C@H](c2ccc(C(F)(F)F)cc2)CC1)c1ccc(F)cc1 [A, Butyrophenone, 4'-fluoro-4-[[4-(α,α,α-trifluoro-p-tolyl)-cyclohexyl]amino]-, trans-,] | 5.1 µM |  |  |  |  |  |  |  |  |  |  |  |  |  |  |  | 
2 | CO[C@]1(c2ccccc2C)CC[C@H](NCCCC(=O)c2ccc(F)cc2)CC1 [B, Butyrophenone, 4'-fluoro-4-[(c-4-methoxy-4-o-tolylcyclohexyl)-amino]-, hydrochloride, hemihydrate] | 10.7 µM | 183 µM | 3 | 5 | 5 | 2 | 36 | 15 | 51 | 8 | 7 | 6 | 13 | 33 | 34 | 66 | 
3 | CO[C@]1(c2ccc(C)cc2)CC[C@H](NCCCC(=O)c2ccc(F)cc2)CC1 [D, Butyrophenone, 4'-fluoro-4-[(c-4-methoxy-4-p-tolyl-r-1-cyclohexyl)amino]-, hydrochloride] | 14.9 µM | 261 µM |  |  |  |  |  |  |  |  |  |  |  |  |  |  | 
4 | O=C(CCCN[C@H]1CC[C@](CO)(c2ccccc2)CC1)c1ccc(Cl)cc1 [E, Butyrophenone, 4'-chloro-4-[[c-4-(hydroxy-methyl)-4-phenyl-r-1-yclohexyl]amino]-, hydrochloride] | 29.8 µM |  |  |  |  |  |  |  |  |  |  |  |  |  |  |  | 
5 | CN(CCCC(=O)c1ccc(F)cc1)[C@H]1CC[C@](CO)(c2ccccc2)CC1 [F, Butyrophenone, 4'-fluoro-4-[[c-4-(hydroxy-methyl)-t-4-phenyl-r- -cyclohexyl]methyl-amino]-] | 43.7 µM | 65.2 µM | 14 | 12 | 12 | 17 | 60 | 55 | 105 |  |  |  |  |  |  |  | 
6 | O=C(CCCN[C@H]1CC[C@](CO)(c2ccc(Cl)cc2)CC1)c1ccc(F)cc1 [G, Butyrophenone, 4-[[t-4-(p-chlorophenyl)-c-4-(hydroxymethyl)-r-1-cyclo-hexyl]amino]-4'fluoro-, hydrochloride] | 55.3 µM | 74.3 µM |  |  |  |  |  |  |  | 12 | 13 | 9 | 13 | 52 | 46 | 98 | 
7 | O=C(CCCNC1CCC(c2ccc(Cl)cc2)CC1)c1ccc(F)cc1 (stereo not drawn) [H, Butyrophenone, 4[[4-(p-chlorophenyl)cyclohexyl]-amino]-4'-fluoro-, hydro-chloride] |  |  |  |  |  |  |  |  |  | 6 | 6 | 7 | 9 | 52 | 28 | 78 | 
8 | O=C(CCCN[C@H]1CC[C@](CO)(c2ccccc2)CC1)c1ccc(F)cc1 [I, Butyropehnone, 4'-fluoro-4-[[4-(hydroxymethyl)-4-phenylcyclohexyl]amino]- cis-, hydrochloride] | 24.3 µM |  |  |  |  |  |  |  |  | 2 | 4 | 6 | 7 | 40 | 18 | 58 | 221 µM
